Literature values as cited in US6710071B2, “Difluoromethylene aromatic ethers as inhibitors of glycine transport” (Pfizer Inc, priority 2001, dated 2004).

Test system: NMDA receptor
Conditions: effect blocked by a specific NMDA-site antagonist and a glycine-site antagonist

SMILES: CN(CCC(Oc1ccc(-c2ccccc2)cc1)c1ccc(F)cc1)CC(=O)O (stereo not shown) [NFPS]
- post synaptic current driven by the NMDA receptor: increased
